Assay results reported in article PMC5011342, “A high throughput drug screening assay to identify compounds that promote oligodendrocyte differentiation using acutely dissociated and purified oligodendrocyte precursor cells” (BMC Research Notes, 2016).
Where two headings read alike, the source gives them in different places.

How the values were obtained:
[1] = system: acutely dissociated and purified rat OPCs; test: Acute OL differentiation assay (MBP expression/cell, immunofluorescent image quantification); assay type: cell-based; settings: Rattus norvegicus
How it was run: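 This acute differentiation assay used purified rat OPCs from postnatal day 6–7 pups, seeded into PDL/laminin-coated 96-well plates in differentiation medium lacking PDGF and FGF. Compounds were applied in quadruplicate after a 1–2 h preincubation at 37 °C, 10 % CO2, with 0.1 % DMSO negative and 40 ng/ml T3 positive controls in eight wells. After fixation on DIV4, anti-MBP immunofluorescence images yielded MBP expression/cell.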

[2] = system: expanded OPCs; test: cells; settings: for viability at 0.1 µM / viability at 1 µM / viability at 10 µM: Rattus norvegicus, 72 h; for 0.1 µM (% DMSO) / 1 µM (% DMSO) / 10 µM (% DMSO): alamarBlue viability of expanded OPCs, relative to DMSO control; for 0.1 µM (% DMSO): compound at 0.1 µM; for 1 µM (% DMSO): compound at 1 µM; for 10 µM (% DMSO): compound at 10 µM
How it was run: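 Toxicity screen: compounds added at 0.1, 1 and 10 µM to PDGF-AA-expanded OPCs in 96-well plates, 3-day incubation at 37 °C, 10% CO2, then alamarBlue 1:10 for 4 h with fluorescence readout. Results set screening doses of 10/2, 2/0.4 or 0.4/0.08 µM.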

[3] = 2 uM test compound, relative to quetiapine, sheet "All OLga data", read-out: OL differentiation, 2 uM (% Quet)
[4] = read-out: 0.1 µM (% DMSO), alamarBlue viability of expanded OPCs, compound at 0.1 µM, sheet All Tox data
[5] = read-out: 1 µM (% DMSO), alamarBlue viability of expanded OPCs, compound at 1 µM, sheet All Tox data
[6] = read-out: 10 µM (% DMSO), alamarBlue viability of expanded OPCs, compound at 10 µM, sheet All Tox data
[7] = 10 uM test compound, relative to quetiapine, sheet "All OLga data", read-out: OL differentiation, 10 uM (% Quet)
[8] = test compound at 2 uM, NCC library screen, sheet "All OLga data", relative to quetiapine, read-out: 2 uM (% Quet)
[9] = test compound at 10 uM, NCC library screen, sheet "All OLga data", relative to quetiapine, read-out: 10 uM (% Quet)
[10] = read-out: 0.1 µM (% DMSO), alamarBlue viability, NCC library compound at 0.1 µM, sheet "All Tox data"
[11] = read-out: 1 µM (% DMSO), alamarBlue viability, NCC library compound at 1 µM, sheet "All Tox data"
[12] = read-out: 10 µM (% DMSO), alamarBlue viability, NCC library compound at 10 µM, sheet "All Tox data"

CN1CCC(=C2c3ccccc3CCc3sccc32)CC1 [Pizotyline]
activation at 0.4 µM ([1]; 0.4 uM test compound, relative to quetiapine, sheet "All OLga data", read-out: OL differentiation, 0.4 uM (% Quet)): -8.8%
activation at 2 µM [1, 3]: -30.6%
viability at 0.1 µM [2, 4]: 86.7%
viability at 1 µM [2, 5]: 65.3%
viability at 10 µM [2, 6]: 24.6%

OC[C@H]1O[C@@H](Oc2cc(O)cc(/C=C/c3ccc(O)cc3)c2)[C@H](O)[C@@H](O)[C@@H]1O [Polydatin]
activation at 2 µM [1, 3]: -15%
activation at 10 µM [1, 7]: -20.9%
viability at 0.1 µM [2, 4]: 106%
viability at 1 µM [2, 5]: 110%
viability at 10 µM [2, 6]: 113%

C[n+]1ccccc1/C=N/O [Pralidoxime]
activation at 2 µM [1, 8]: -5%
activation at 10 µM [1, 9]: -3.8%
viability at 0.1 µM [2, 10]: 90.3%
viability at 1 µM [2, 11]: 93.1%
viability at 10 µM [2, 12]: 89.1%

CC[C@H](C)C(=O)O[C@H]1C[C@H](O)C=C2C=C[C@H](C)[C@H](CC[C@@H](O)C[C@@H](O)CC(=O)O)[C@H]21 [Pravastatin]
activation at 2 µM [1, 3]: 8.6%
activation at 10 µM [1, 7]: -87.5%
viability at 0.1 µM [2, 4]: 113%
viability at 1 µM [2, 5]: 124%
viability at 10 µM [2, 6]: 151%

O=C(C1CCCCC1)N1CC(=O)N2CCc3ccccc3C2C1 (stereo not drawn) [Praziquantel]
activation at 2 µM [1, 8]: 0.6%
activation at 10 µM [1, 9]: -9.5%
0.1 µM (% DMSO) [2]: 85.2 % DMSO
1 µM (% DMSO) [2]: 85.1 % DMSO
10 µM (% DMSO) [2]: 85.6 % DMSO

CC(=O)OCC(=O)[C@@]1(O)CC[C@H]2[C@@H]3CCC4=CC(=O)C=C[C@]4(C)[C@H]3[C@@H](O)C[C@@]21C [Prednisolone acetate]
activation at 2 µM ([1]; test compound at 2 uM, MBP expression relative to quetiapine, NCC library screen, sheet "All OLga data", read-out: 2 uM (% Quet)): -3.3%
activation at 10 µM ([1]; test compound at 10 uM, MBP expression relative to quetiapine, NCC library screen, sheet "All OLga data", read-out: 10 uM (% Quet)): -37.1%
0.1 µM (% DMSO) [2]: 112.3 % DMSO
1 µM (% DMSO) [2]: 112.6 % DMSO
10 µM (% DMSO) [2]: 109.9 % DMSO

C[C@]12C=CC(=O)C=C1CC[C@@H]1[C@@H]2[C@@H](O)C[C@@]2(C)[C@H]1CC[C@]2(O)C(=O)COC(=O)CCC(=O)O [Prednisolone hemisuccinate]
activation at 2 µM [1, 8]: 10.2%
activation at 10 µM [1, 9]: 9.3%
viability at 0.1 µM [2, 10]: 107%
viability at 1 µM [2, 11]: 95%
viability at 10 µM [2, 12]: 94.3%

C[C@]12C=CC(=O)C=C1CC[C@@H]1[C@@H]2[C@@H](O)C[C@@]2(C)[C@H]1CC[C@]2(O)C(=O)CO [Prednisolone]
activation at 2 µM [1, 8]: -21.9%
activation at 10 µM [1, 9]: -15.7%
0.1 µM (% DMSO) [2]: 117.5 % DMSO
1 µM (% DMSO) [2]: 112.6 % DMSO
10 µM (% DMSO) [2]: 109.9 % DMSO

C[C@]12C=CC(=O)C=C1CC[C@@H]1[C@@H]2C(=O)C[C@@]2(C)[C@H]1CC[C@]2(O)C(=O)CO [Prednisone]
activation at 2 µM [1, 8]: -4.5%
activation at 10 µM [1, 9]: -47.4%
0.1 µM (% DMSO) [2]: 88.8 % DMSO
1 µM (% DMSO) [2]: 89.0 % DMSO
10 µM (% DMSO) [2]: 86.2 % DMSO

CCCNC(C)C(=O)Nc1ccccc1C (stereo not drawn) [Prilocaine]
activation at 2 µM [1, 8]: 2.7%
activation at 10 µM [1, 9]: -1.2%
0.1 µM (% DMSO) [2]: 89.7 % DMSO
1 µM (% DMSO) [2]: 89.9 % DMSO
10 µM (% DMSO) [2]: 89.6 % DMSO

COc1cc(NC(C)CCCN)c2ncccc2c1 (stereo not drawn) [Primaquine]
activation at 0.4 µM ([1]; read-out: 0.4 uM (% Quet)): -10%
activation at 2 µM ([1]; read-out: 2 uM (% Quet)): -37.5%
0.1 µM (% DMSO) [2]: 90.1 % DMSO
1 µM (% DMSO) [2]: 66.2 % DMSO
10 µM (% DMSO) [2]: 32.4 % DMSO

CCC1(c2ccccc2)C(=O)NCNC1=O [Primidone]
activation at 2 µM [1, 8]: 1.4%
activation at 10 µM [1, 9]: 15.6%
viability at 0.1 µM [2, 10]: 86.9%
viability at 1 µM [2, 11]: 89.5%
viability at 10 µM [2, 12]: 82.3%

CCCN(CCC)S(=O)(=O)c1ccc(C(=O)O)cc1 [Probenecid]
activation at 2 µM [1, 8]: 1.7%
activation at 10 µM [1, 9]: -6.4%
viability at 0.1 µM [2, 10]: 89.6%
viability at 1 µM [2, 11]: 94.3%
viability at 10 µM [2, 12]: 91.5%

CCN(CC)CCNC(=O)c1ccc(N)cc1 [Procainamide]
activation at 2 µM [1, 8]: 0.4%
activation at 10 µM [1, 9]: 19.7%
viability at 0.1 µM [2, 10]: 106%
viability at 1 µM [2, 11]: 111%
viability at 10 µM [2, 12]: 120%

CCN(CC)CCOC(=O)c1ccc(N)cc1 [Procaine]
activation at 2 µM [1, 8]: -5.2%
activation at 10 µM [1, 9]: 7.7%
viability at 0.1 µM [2, 10]: 121%
viability at 1 µM [2, 11]: 145%
viability at 10 µM [2, 12]: 146%
